melting point [°C] | Compound
52 | Cn1c2c(c3ccccc31)CCCC2
94.5 | O=Cc1cc(F)ccc1[N+](=O)[O-]
389 | Nc1nnc(-c2ccccc2)c(Nc2ccc(I)cc2)n1
-45 | CCC(CC)COC(=O)CCCCCCCC(=O)OCC(CC)CC
244 to 248 | CC(C)(C)c1ccc(-c2cc(N)c(C(N)=O)s2)cc1
204 | CC1C(=O)C23C4CC5C(C)(C)CCC(O)C56COC(CC1C2OC(C)(C)O4)C63 (centres undefined)
127 to 129 | CCCCc1ccc(C(N)=O)cc1
27.4 | CC(C)CCCCCCCOC(=O)CCCCC(=O)OCCCCCCCC(C)C
61 to 63 | O=C=Nc1ccc2c(c1)OCCOCCOCCOCCOCCO2
95 | O=C1OC(=O)c2c(F)c(F)c(F)c(F)c21
106 to 108 | CC(=O)Nc1ccc2c(c1)CCC2
171 | O=[N+]([O-])c1cc([N+](=O)[O-])c(Nc2ccc3c(c2)OCCOCCOCCOCCO3)c(C(F)(F)F)c1
176 | CCC(=O)c1c(O)cc(O)cc1O
83 to 86 | O=C(c1ccccc1)c1cc([N+](=O)[O-])ccc1Cl
114 | CC(C)(C)c1cc(C(C)(C)c2ccc(O)c(C(C)(C)C)c2)ccc1O
52 to 53 | Cc1ccccc1CS(=O)(=O)Cl
150 | N#Cc1ccnc(N)c1
41 to 42 | S=C=Nc1ccc(Oc2ccccc2)nc1
76 to 78 | O=C(O)CCc1ccccc1F
164 | Cc1c(C)c([N+](=O)[O-])c(C)c2c1C(=O)C2
205 | Cc1ccc(NC(=O)C=CC(=O)O)cc1
131 to 133 | Cn1ncc(N2CCOCC2)c(Cl)c1=O
174 to 175 | CSc1nc2cc(N=Cc3ccc(F)cc3)ccc2[nH]1
160 to 164 | NC(=S)CS(=O)(=O)c1cccs1

melting point [°C] | Compound
245 | O=C(O)CN(CC(=O)O)CC(=O)O
29 to 33 | O=C(Cl)c1ccc2c(c1)OCCCO2
87 | Fc1c(F)c(F)c(Sc2c(F)c(F)c(F)c(F)c2F)c(F)c1F
151 to 152 | C=CCNC(=S)Nc1sc2c(c1C(=O)OCC)CCCC2
91 | COC(=O)C1CC(c2ccccc2)c2ccccc21 (centres undefined)
65 | N#CCCN1CCN(CCC#N)CC1
87 | CC(C)C=C1NC(c2ccccc2)OC1=O (centres undefined)
68 | CC(=O)C(Cc1ccccc1)C(=O)OC1CC(C)CCC1C(C)C (centres undefined)
160 | COc1ccc(OC)c(NC(N)=S)c1
224 to 225 | O=C(O)CNCCNCC(=O)O
74 | CCOC(=O)c1c[nH]cc1C
37 | CCCCCCCCCCC(=O)CCCCC
103 to 107 | COc1cc2c(cc1OC)C(CCO)NCC2 (centres undefined)
64 to 65 | CCOC(=O)OC(=O)C1=CC(C)(C)N(O)C1(C)C
192 | CC(=O)CCc1oc2c(I)cc(I)cc2c1-c1ccc(C)o1
58 to 59 | OCCN1CCN(c2ncc(Cl)cc2C(F)(F)F)CC1
91 | CC(=O)C(c1ccccc1)c1ccc(C(F)(F)F)cc1[N+](=O)[O-] (centres undefined)
38 | COC(=O)C1CC2(C(=O)OC)C=CC1C2 (centres undefined)
139 | O=C(O)c1cc(Cl)nnc1Cl
43 | CC(F)(F)C(=O)O
260 | C=CC=C(C=C1C(=O)NN=C1c1c(O)c2ccccc2n(C)c1=O)C(Cl)=CC
56 to 58 | Cc1nc(C=O)cs1
216 | CN(C)c1ccc2nc3ccc(=O)cc-3sc2c1
26.5 | COc1ccc2ncccc2c1

melting point [°C] | Compound
109 to 114 | Cc1ccc(C2(C(=O)O)CC2)cc1
150 | CN(C)c1ccc(C=Cc2ccccc2)cc1
222 | CC/C(=N\NC(N)=O)C1CC2(C)CCC1C2(C)C (centres undefined)
256 to 260 | CC(C)(C)c1ccc(-c2nnc(S)n2-c2cccc(C(F)(F)F)c2)cc1
252 to 253 | O=C1CCC(c2ccc(NC(=O)C(Cl)Cl)cc2)=NN1
267 to 272 | CCOC(=O)c1c[nH]c2c(F)c(F)c(F)cc2c1=O
166 | CN(C)CCN1C(=O)c2ccccc2Nc2cc(Cl)ccc21
189 | CCOC(=O)c1nn(-c2ccc(C)cc2)c(C)c1C(=O)c1noc(-c2ccc([N+](=O)[O-])cc2)c1S(=O)(=O)c1ccccc1
230 | O=C1CNC(=S)N1
74 | Cc1cc(Br)c(N)c(Br)c1
110 to 114 | C=C1C2CC(CC2NS(=O)(=O)c2ccc(C)cc2)C1(C)C (centres undefined)
86 | CCn1c(-c2ccccc2)cc2ccccc21
144 | COc1c2ccoc2cc2oc(C)cc(=O)c12
52 to 53 | CN(C)c1nc2ccccc2cc1C=O
68.5 | O=C(O)CCCCCCCCCCCCC1C=CCC1 (centres undefined)
135 | CC1=C(C(=O)O)CCC1(C)C
178 to 179 | CCCc1ccc(NC(C)=O)cc1O
134 to 137 | CC(C)(C(=O)O)C(O)c1ccccc1 (centres undefined)
159 to 162 | CCOC(=O)C(C#N)=c1sc(=C(C#N)C(=O)OCC)s1
86 to 87 | Clc1nccc(-c2ccccc2)n1
144 | O=C(O)c1ccc(Cl)cc1[N+](=O)[O-]
68 to 73 | COc1ccc(Br)cc1CO
60 to 62 | COc1ccc(Cl)cc1N=C=O
55 | COc1c(F)cc(Br)cc1[N+](=O)[O-]

melting point [°C] | Compound
47 | CCOC(=O)c1sc(C2CCN(C(=O)OC(C)(C)C)CC2)nc1C
145 | COc1c(C(C)(C)C(C)C)c(OC(C)=O)c(OC(C)=O)c2ccccc12
257 | Cn1ncc2c(NCCNC3=CC(=O)c4ccccc4C3=O)ncnc21
131 | COC(=O)C(Cl)C(Cl)c1cccc(C(Cl)C(Cl)C(=O)OC)c1 (centres undefined)
147 | CCOC(=O)C1=C(C)N(C)C(=S)NC1c1ccccc1 (centres undefined)
-58 | CC1CCCCS1 (centres undefined)
202 to 203 | CC(=O)Oc1ccccc1C1NC(=O)NC(C)=C1C(=O)OCc1ccccc1 (centres undefined)
77 to 78 | O=[N+]([O-])c1ccc(Cl)c(CO)c1
144 | O=C1CC(C(=O)O)CC(=O)C1=C(O)C1CC1 (centres undefined)
78 | COC(=O)C(NC(=O)OCc1ccccc1)P(=O)(OC)OC (centres undefined)
136 to 137 | O=C(Oc1c(F)c(F)c(F)c(F)c1F)c1csc(-c2cccnc2)n1
97 | COc1cc([N+](=O)[O-])ccc1S(=O)(=O)Cl
178 to 181 | O=C1CSc2ccccc2N1
118 | Cc1ccc(S(=O)(=O)Oc2c(C(=O)c3ccc(Cl)cc3Cl)c(C)nn2C)cc1
-148 | FC(F)(F)C(F)(F)C(F)(F)F
-30 | NCCNCCNCCNCCN
140 | CCC(c1ccc2cc(OC)ccc2c1)C(C)(C)C(=O)O (centres undefined)
170 | Nc1ccc(S(=O)(=O)c2ccc([N+](=O)[O-])cc2)cc1
112 to 114 | O=C(O)CS(=O)(=O)c1ccccc1
96 to 97 | O=[N+]([O-])c1c(Cl)c(Cl)c(Cl)c(Cl)c1NCc1ccccc1
144 | CC(C)(C)OC(=O)N[C@@H](CC(=O)O)c1ccc(Br)cc1
289 | N#CC(C#N)=C1C(=O)NN(c2ccccc2)C1=O
171 | Cc1cc(C(F)(F)F)n2nc(N)c(/N=N/c3cccc(C(F)(F)F)c3)c2n1
100 | O=C(O)CCCCCCCC(O)C(O)CCCCCCO (centres undefined)

melting point [°C] | Compound
264 | CC(=O)NC1C(Oc2ccc([N+](=O)[O-])cc2)OC(CO)C(O)C1O (centres undefined)
-112 | CC(C)CCBr
206 to 208 | Brc1nc(Br)c(Br)c(Br)c1Br
142 | COc1ccc(-c2csc(/C(C#N)=C/c3ccc(Cl)cc3Cl)n2)cc1
-74.3 | C=C(C)C1CC=C(C)CC1 (centres undefined)
268 | O=C1NC(=O)C2(CCc3ccccc3C2)N1 (centres undefined)
37 | CCCCCCCCCC(=O)CCCCCC
138 to 142 | CC(/C=C(C)/C=C/c1ccccc1)=NNS(=O)(=O)c1ccc(C)cc1
-50 | CCCCN(CCCC)CCCN
153 to 154 | CC1=NN(c2ccccc2)C(=O)/C1=C\c1ccccc1O
79 to 81 | Cc1noc(-c2ccccc2)c1N=C=O
177 | C(#Cc1ccc(C#Cc2ccccc2)cc1)c1ccccc1
206 to 208 | O=C(O)c1cc2cc(Cl)cc(Br)c2oc1=O
71 to 75 | O=C=Nc1ccc(Br)cc1Cl
76 to 82 | CC(=O)SCC(C)C(=O)N1CCCC1C(=O)O (centres undefined)
127 | O=Cc1ccc(I)o1
238 to 240 | O=C(O)c1ccc(-c2ncccn2)cc1
219 to 221 | Oc1ccc(C2(c3ccc(O)cc3)CC3CC2C2CCCC32)cc1 (centres undefined)
71 | C=C1C(=O)C23C(OC(C)=O)CC4C5(C)CCCC4(C(OC)OC5)C2C(OC(C)=O)CC1C3OC(C)=O (centres undefined)
86 to 88 | CC(=O)c1sccc1N
88 | CN1CCCN(CC#N)CCN(CC#N)CCCN(CC#N)CC1

Compound | melting point [°C]
CC(N)C(C)(C)C (centres undefined) | -20
O=P1(N(CCCl)CCCl)NCCCO1 (centres undefined) | 51.5
O=C(N[N+](=O)[O-])c1ccccc1 | 143
NC(=O)OCCCc1ccccc1 | 102
CC(=O)C1(O)CCC2(C)C(CC(=O)C3C4CCC(=O)C4(C)CCC32)C1 (centres undefined) | 185 to 191
BrCC(Br)C1CCC(Br)C(Br)C1 (centres undefined) | 70
Sc1cc(Cl)c(Cl)cc1Cl | 117 to 118
O=C(O)c1c(Cl)ccc2cc(Cl)cnc12 | 274
N#CCCO | -46
CC(=O)C(Cl)C(C)=O | -15
COC(=O)C(Cl)C(C)=O (centres undefined) | -33
CC1C(=O)OC2CCN3CC=C(COC(=O)C(C)(O)C1(C)O)C23 (centres undefined) | 197 to 204

Source: a melting point compilation (Tetko et al.)
